According to patent US8096982B2, “Method and apparatus to enhance optical transparency of biological tissues” (priority 1998, dated 2012):

How the values were obtained:
[1] = Optical transmission characteristics of the agent in a cuvette (UV-Vis-NIR spectrophotometer); type: physicochemical
Experimental: Diatrizoate meglumine acid, which is commercially known as Hypaque®, is a radiographic injection solution. […] In an experiment, a cuvette was filled with diatrizoate meglumine acid and its optical transmission characteristics were evaluated using a Varian CARY 5E™ UV-Vis-NIR spectrophotometer.

sclera = type: in vivo, rabbit; conditions: for signs of inflammation on follow up examination: rabbit, in vivo; for time for sclera to turn clear: topical drops on exposed sclera, conjunctiva surgically separated
Experimental: In order to assess the longitudinal effects of topical administration of glycerol or diatrizoate meglumine acid on the sclera, in-vivo experiments were carried out on two rabbits, and the eyes were examined for signs of inflammation once a day for approximately 1 week.
Each rabbit was put under anesthesia using an intra-muscular injection of Rompin® and Ketamine®. The conjunctiva serves as the permeability barrier for the sclera, and therefore, the conjunctiva was surgically separated from the sclera and the distal surface of the sclera was exposed. Topical drops of glycerol were administered on one eye, and of diatrizoate meglumine acid in the contra-lateral eye, for both rabbits. In the case of glycerol, the sclera turned clear, almost instantaneously (in less than 5 seconds), whereas in the case of diatrizoate meglumine acid, the sclera turned clear in approximately 1 minute. The conjunctiva was stretched over the sclera, again, and stay sutures were used to re-attach the conjunctiva to the limbal region. Ocumycing was administered topically to both eyes which had undergone surgery, to prevent infection. After approximately 5-10 minutes, the sclera in both eyes became opaque, again.

porcine sclera = experiment: Diffuse transmission through excised porcine sclera before and after submersion in clarifying agent; conditions: maximum increase, at 750 nm, range 350-750 nm
Experimental: Porcine eyes were enucleated immediately post-mortem, and were transported to the laboratory in a wet gauze pad, held at 4° C. during transport in a well-insulated cooler. Each eye was inflated with saline. Limbal conjunctiva and Tenons capsule were dissected and excised using a pair of blunt Wescott scissors. A No. 64 Beaver blade was then used to outline 20 mm×20 mm sections of the sclera from the limbus to the equator of the globe. Incisions were deepened to the supra-choroidal space. Sections of sclera were then lifted off the intact choroid and ciliary body. Scleral thickness was measured and was determined to be 1.65 mm on average.
Three prepared sections of sclera were each then placed between quartz slides, and then between two flat aluminum plates. The tissue sample assembly was then fixed against the input port of a diffuse reflectance accessory (integrating sphere) of a Varian Cary 5E™ UV-Vis-NIR spectrophotometer, and diffuse transmission was measured for wavelengths ranging from 350 nm to 750 nm. The three tissue samples were then submerged in separate containers of glycerol, the first being submerged for 5 minutes, the second for 10 minutes, and the third for 15 minutes. Each sample was then again placed in the tissue assembly and was fixed against the input port of the diffuse reflectance accessory of the spectrophotometer, and the diffuse transmission was measured again over the same wavelength range as above. These measurements were also carried out, using three other scleral samples, and diatrizoate meglumine acid as the IRIM agent.

human skin = conditions: approximately 8 minutes after topical administration; stratum corneum tape-stripped; 480-800 nm
Experimental: Two skin surfaces on the forearm were shaved and cleaned prior to measurements. A tape-strip method was used to remove the stratum corneum. […] The topical drugs administered formed an approximate circle of 1 cm in diameter. The drugs were left to diffuse into the tissue for approximately 8 minutes.
Surface reflectance measurements were made immediately after tape stripping of the skin (prior to topical administration of the drugs), and subsequently, approximately 8 minutes after topical administration of the drugs. A CSI Portable Diffuse Reflectance Spectrometer, developed by Canfield Scientific Instruments, Inc. (Fairfield, N.J.), was used for these surface measurements. […] One leg of the bifurcated fiber optic bundle is coupled to the lamp and the other leg is coupled to the spectrometer. The joined end of the fiber bundle (approximately 3 mm in diameter) was placed in contact with the skin surface from which measurements were made. The measurements were made across a 330 nm to 840 nm spectral range, with a 0.5 nm resolution. The integration time for the measurements was set at 50 kHz.
The tape stripping of the skin causes a mild irritation of the skin, leading to a transient erythema.

edematous corneas = conditions: glycerol applied topically in concentrations from 50% to 100%; cited from earlier work

optical transmission ([1]; wavelengths above 400 nm)	optical transmission ([1]; wavelengths below approximately 400 nm)	signs of inflammation on follow up examination (sclera)	Structure (SMILES)	time for sclera to turn clear (sclera)	increase in diffuse transmission through the sclera (porcine sclera; submerged 5 minutes)	increase in diffuse transmission through the sclera (porcine sclera; submerged 10 minutes) [%]	increase in diffuse transmission through the sclera (porcine sclera; submerged 15 minutes) [%]	increase in absorbance of tissue, in-vivo (human skin)	clearing of edematous corneas following topical administration (edematous corneas)
very high transmission	very low transmission	no signs of inflammation	CC(=O)Nc1c(I)c(NC(C)=O)c(I)c(C(=O)O)c1I.CNC[C@H](O)[C@@H](O)[C@H](O)[C@H](O)CO [diatrizoate meglumine acid]	approximately 1 minute	up to 200%	≤ 395	≤ 975	–	–
–	–	no signs of inflammation	OCC(O)CO [glycerol]	less than 5 seconds	up to 240%	≤ 660	≤ 1090	up to 60.5%	effective in clearing edematous corneas, within two minutes
